Assay results from publication PMC7818921, “Synthesis and biological evaluation of heterocyclic 1,2,4-triazole scaffolds as promising pharmacological agents” (BMC Chemistry, 2021).
pIC50: −log10 of the molar value. In brackets after ≈: the same amount, converted by molar mass. Where two headings read alike, the source gives them in different places.

Tests used:
[1] = system: Gram-positive (B. subtilis), Gram-negative (P. aeruginosa and E. coli) bacterial strains; assay: Tube dilution method, MIC of antibacterial standards quoted without strain; format: cell-based; details: antibacterial standard, strain not given
Escherichia coli = assay: In vitro antimicrobial screening, tube dilution method; format: cell-based; details: Escherichia coli; E. coli, Gram −ve; nutrient broth, 37 ± 1 °C, 24 h; read-out: Minimum inhibitory concentration
Protocol: (§1) The in vitro antimicrobial screening of the synthesized 1,2,4-triazole derivatives (T1–T20) in μM was determined against Gram-positive Bacillus subtilis, […], Gram-negative Escherichia coli bacterium and fungal strains Candida albicans and Aspergillus niger by tube dilution method using ciprofloxacin, amoxycillin (antibacterial) and fluconazole (antifungal) as reference drugs. DMSO was used to dissolve the reference and sample derivatives (T1–T20). Dilutions were prepared in nutrient broth (I.P.) for bacterial (incubated at 37 ± 1 °C for 24 h) and Sabouraud dextrose broth (I.P.) for fungal species (37 ± 1 °C for 48 h for C. albicans) and (25 ± 1 °C for 7 days for A. niger) (Table 3, Figs. 4 and 5).

Bacillus subtilis = assay: as above; format: cell-based; details: B. substilis, Gram +ve, nutrient broth, 37 ± 1 °C, 24 h, read-out: Minimum inhibitory concentration
Protocol: as §1

Pseudomonas aeruginosa = assay: as above; format: cell-based; details: P. aeruginosa, Gram −ve, nutrient broth, 37 ± 1 °C, 24 h, read-out: Minimum inhibitory concentration
Protocol: as §1

Jack Bean Urease = Jack Bean Urease (Canavalia ensiformis, UniProt P07374); assay: biochemical
Protocol: Urease inhibitory potential for each synthesisized compound (T1–T20) was evaluated using Jack Bean Urease by Indophenol method (Table 5, Figs. 9, 10, 11). 250 µl of jack bean urease (4U) was mixed with 250 µl of different synthesized test compounds and standard of different concentrations [dissolved in DMSO/H2O mixture (1:1 v/v)]. The mixture was pre-incubated for 1 h at 37 °C in test tubes. 2 ml of 100 mM phosphate buffer (pH 6.8) containing 500 mM urea and 0.002% phenol red as an indicator were added in sample test tubes after pre incubation and again incubated at room temperature. Absorbance of reaction mixture was recorded by ELISA at 570 nm. Ammonium carbonate increased the pH of phosphate buffer from 6.8 to 7.7 which was produced from urea by urease enzyme and the end peak was measured by the colour of phenol red indicator [16].
The percentage inhibition of urease enzyme was calculated by using following formula: I%=Acontrol-Asample/Acontrol×100,
where Acontrol is the absorbance of the control; Asample is the absorbance of the test compound.

[2] = DPPH free radical scavenging activity; details: for IC50: DPPH antioxidant; for % inhibition: DPPH
Protocol: In the DPPH free radical scavenging activity, compounds (T1–T20) were evaluated for their free radical scavenging activity with ascorbic acid as standard compound. The scavenging effect increased with the increasing concentrations of sample compounds. DPPH is relatively stable nitrogen centered free radical that easily accepts an electron or hydrogen radical to become a stable diamagnetic molecule. DPPH radicals react with suitable reducing agents as a result of which the electrons become paired off forming the corresponding hydrazine. The solution therefore loses colour stoichometrically depending on the number of electrons taken up. […] The sample solutions were incubated for 30 min at room temperature in dark place and after then absorbance was recorded against the blank solution at 517 nm. The relative percent of DPPH scavenging activity was calculated according to the following equation: I%=Acontrol-Asample/Acontrol×100,
where Acontrol is the absorbance of the control, Asample is the absorbance of the test compound.

Candida albicans = assay: In vitro antifungal screening, tube dilution method; format: cell-based; details: Candida albicans; C. albican; Sabouraud dextrose broth, 37 ± 1 °C, 48 h; read-out: Minimum inhibitory concentration
Protocol: as §1

Aspergillus niger = assay: as above; format: cell-based; details: Aspergillus niger, 168 h; A. niger; Sabouraud dextrose broth, 25 ± 1 °C, 7 days; read-out: Minimum inhibitory concentration
Protocol: as §1

[3] = system: HCT116 (human colon cancer cells); assay: Anticancer evaluation, SRB assay; format: cell-based; details: Homo sapiens, HCT-116; for pIC50: HCT116, 72 h, SRB, mean of at least triplicates
Protocol: HCT116 (human colon cancer cells) were seeded at 2500 cells/well (96 well plate), allowed to attach overnight, exposed to the respective compounds for 72 h and subjected to SRB assay (570 nm). Data represent mean IC50 of at least triplicates. The compounds were all dissolved in DMSO as stock of 100 mg/ml. […] The highest concentration of each compound tested (100 μg/ml) contained only 0.1% DMSO.

Sequence of Jack Bean Urease (P07374 whole entry, looked up): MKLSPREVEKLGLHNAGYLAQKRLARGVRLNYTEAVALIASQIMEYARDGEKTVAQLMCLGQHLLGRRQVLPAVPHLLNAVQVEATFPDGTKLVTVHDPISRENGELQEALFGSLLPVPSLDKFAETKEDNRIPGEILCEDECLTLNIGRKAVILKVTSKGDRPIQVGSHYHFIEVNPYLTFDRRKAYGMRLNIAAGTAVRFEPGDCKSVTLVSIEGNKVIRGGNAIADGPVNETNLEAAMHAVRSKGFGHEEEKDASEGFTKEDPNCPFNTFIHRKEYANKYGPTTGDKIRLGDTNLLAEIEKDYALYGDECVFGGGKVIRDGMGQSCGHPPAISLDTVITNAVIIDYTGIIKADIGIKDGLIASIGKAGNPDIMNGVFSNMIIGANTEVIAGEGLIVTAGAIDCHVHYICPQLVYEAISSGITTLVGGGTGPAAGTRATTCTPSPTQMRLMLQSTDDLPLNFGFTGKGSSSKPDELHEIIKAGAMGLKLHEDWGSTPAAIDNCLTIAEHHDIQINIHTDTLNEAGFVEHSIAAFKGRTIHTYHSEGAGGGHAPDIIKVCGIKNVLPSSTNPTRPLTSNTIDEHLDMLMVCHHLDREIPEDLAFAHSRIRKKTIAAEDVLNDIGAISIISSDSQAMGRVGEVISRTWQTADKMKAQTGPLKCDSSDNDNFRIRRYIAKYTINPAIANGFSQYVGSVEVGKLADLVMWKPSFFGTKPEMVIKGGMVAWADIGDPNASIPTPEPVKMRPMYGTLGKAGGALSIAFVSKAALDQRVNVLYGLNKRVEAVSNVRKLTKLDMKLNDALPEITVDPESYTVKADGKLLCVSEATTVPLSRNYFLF

Row | Structure (SMILES) | MIC [1] [µM] | MIC (Escherichia coli) [µM] | MIC (Bacillus subtilis; Bacillus subtilis) [µM] | MIC (Pseudomonas aeruginosa; Pseudomonas aeruginosa) [µM] | melting point [°C] | pIC50 (Jack Bean Urease) | inhibition at 25 µg/mL (Jack Bean Urease) [%] | inhibition at 50 µg/mL (Jack Bean Urease) [%] | inhibition at 75 µg/mL (Jack Bean Urease) [%] | inhibition at 100 µg/mL (Jack Bean Urease) [%] | IC50 [2] [µg/mL] | % inhibition ([2]; 25 µg/ml) [%] | % inhibition ([2]; 50 µg/ml) [%] | % inhibition ([2]; 75 µg/ml) [%] | % inhibition ([2]; 100 µg/ml) [%] | MIC (Candida albicans) [µM] | MIC (Aspergillus niger) [µM] | pIC50 [3] | further results
1 | CC1(C)S[C@@H]2[C@H](NC(=O)[C@H](N)c3ccc(O)cc3)C(=O)N2[C@H]1C(=O)O [Amoxicillin, reference compound] | 17.1 | 17.1 (≈ 6.25 µg/mL) | 17.1 (≈ 6.25 µg/mL) | 17.1 (≈ 6.25 µg/mL) |  |  |  |  |  |  |  |  |  |  |  |  |  |  | 
2 | CCCCCCCCCCCCCCCc1nnc(S)n1N=Cc1ccc(Cl)cc1Cl [Compound T12] |  | 103 (≈ 50 µg/mL) | 103 (≈ 50 µg/mL) | 51.7 (≈ 25 µg/mL) | 211 to 214 | 3.92 | 43.6 | 46.6 | 52.6 | 61.6 | 39.56 (≈ 81.8 µM) | 44.45 | 51.45 | 68.56 | 70.61 | 207 (≈ 100 µg/mL) | 103 (≈ 50 µg/mL) | < 3.68 | 
3 | CCCCCCCCCCCCCCCc1nnc(S)n1N=Cc1ccc(C=O)cc1 [Compound T2] |  | 113 (≈ 50 µg/mL) | 56.4 (≈ 25 µg/mL) | 56.4 (≈ 25 µg/mL) | 182 to 185 | 3.92 | 40.5 | 49.5 | 55.7 | 67.6 | 34.83 (≈ 78.7 µM) | 45.67 | 56.98 | 70.16 | 84.21 | 226 (≈ 100 µg/mL) | 226 (≈ 100 µg/mL) | 5.42 | IC50 ([3]; HCT116, value given in dose-response figure): 1.7 µg/mL
4 | O=C(O)c1cn(C2CC2)c2cc(N3CCNCC3)c(F)cc2c1=O [Ciprofloxacin, reference compound] | 18.1 | 37.7 (≈ 12.5 µg/mL) | 18 (≈ 5.96 µg/mL) | 18 (≈ 5.96 µg/mL) |  |  |  |  |  |  |  |  |  |  |  |  |  |  | MIC (Bacillus subtilis): 18.0 µM (≈ 5.96 µg/mL); MIC (Pseudomonas aeruginosa): 18.0 µM (≈ 5.96 µg/mL)
